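Results reflect a 48-hour exposure of cells in 96-well plates to compound at five concentrations. Here, GI50 denotes the concentration required for 50% inhibition of growth.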 Active and inactive are the calls of the source. No stated cut-off is given here; in the data, active = GI50 up to about 1.1 µM and inactive = higher.
Columns and labels:
Experiment in all cases: DTP human tumour cell line panel, 48 h
786-0 = tested on: 786-0
A549 = tested on: A549
CCRF-CEM = tested on: CCRF-CEM
HCC 2998 = tested on: HCC 2998
HCT-116 = tested on: HCT-116
HOP-62 = tested on: HOP-62
Hs-578T = tested on: Hs-578T
IGROV-1 = tested on: IGROV-1
MDA-MB-231 = tested on: MDA-MB-231
MDA-MB-435 = tested on: MDA-MB-435
Malme-3M = tested on: Malme-3M
NCI-H460 = tested on: NCI-H460
NCI-H522 = tested on: NCI-H522
NCI/ADR-RES = tested on: NCI/ADR-RES
PC-3 = tested on: PC-3
SF-268 = tested on: SF-268
SN12C = tested on: SN12C
SNB-19 = tested on: SNB-19
UO-31 = tested on: UO-31
OVCAR-4 = tested on: OVCAR-4

Measured: GI50

COc1c(-c2ccc(F)cc2)oc2cc(O)cc(O)c2c1=O
inactive: 786-0 32.8 µM | A549 31 µM | CCRF-CEM 29.4 µM | HCC 2998 14.5 µM | HCT-116 30.5 µM | HOP-62 18.5 µM | Hs-578T 35.2 µM | IGROV-1 21.4 µM | MDA-MB-231 20 µM | MDA-MB-435 32.1 µM | Malme-3M 26.6 µM | NCI-H460 21.7 µM | NCI-H522 20.5 µM | NCI/ADR-RES 25.9 µM | PC-3 34 µM | SF-268 40 µM | SN12C 30.3 µM | SNB-19 23.9 µM | UO-31 16.6 µM

COc1nc2ncc([C@@H](O)[C@H](O)CO)nc2c(=O)n1C
inactive: 786-0 > 100 µM | A549 > 100 µM | CCRF-CEM > 100 µM | HCT-116 > 100 µM | HOP-62 > 100 µM | Hs-578T > 100 µM | IGROV-1 > 100 µM | MDA-MB-231 > 100 µM | MDA-MB-435 > 100 µM | Malme-3M > 100 µM | NCI-H460 > 100 µM | NCI-H522 > 100 µM | NCI/ADR-RES > 100 µM | OVCAR-4 > 100 µM | PC-3 > 100 µM | SF-268 > 100 µM | SN12C > 100 µM | SNB-19 > 100 µM | UO-31 > 100 µM

CC[C@]12C=CCN3CCC4(c5cc(/N=N/c6ccccc6)c(OC)cc5N(C)[C@H]4[C@@](O)(C(=O)OC)[C@@H]1OC(C)=O)[C@@H]32 (some centres undefined)
inactive: 786-0 16.9 µM | A549 17.5 µM | HCC 2998 17.9 µM | HCT-116 16.4 µM | HOP-62 17.5 µM | Hs-578T 17.8 µM | IGROV-1 17.3 µM | MDA-MB-231 16.2 µM | MDA-MB-435 18.8 µM | Malme-3M 17.8 µM | NCI-H460 16 µM | NCI-H522 16.1 µM | NCI/ADR-RES 20.4 µM | OVCAR-4 17.1 µM | PC-3 14.7 µM | SF-268 18.2 µM | SN12C 18.6 µM | SNB-19 20.5 µM | UO-31 14.6 µM

Cc1ccc(S(=O)(=O)N/N=C2\C3CC4CC(C3)C2C4)cc1 (centres undefined)
inactive: 786-0 > 100 µM | A549 > 100 µM | CCRF-CEM > 100 µM | HCC 2998 > 100 µM | HCT-116 > 10 µM | HOP-62 > 100 µM | Hs-578T > 100 µM | IGROV-1 > 100 µM | MDA-MB-231 > 100 µM | MDA-MB-435 > 100 µM | Malme-3M > 100 µM | NCI-H460 > 100 µM | NCI-H522 > 100 µM | NCI/ADR-RES > 100 µM | OVCAR-4 > 100 µM | PC-3 > 100 µM | SN12C > 100 µM | SNB-19 > 100 µM | UO-31 > 100 µM

O=C1CC(CC(=O)c2ccc(Br)cc2)C(O)=C1C(=O)c1ccc(Br)cc1 (centres undefined)
inactive: 786-0 > 100 µM | A549 > 100 µM | CCRF-CEM 53.2 µM | HCC 2998 > 100 µM | HCT-116 54.2 µM | HOP-62 94.4 µM | Hs-578T 50 µM | IGROV-1 > 100 µM | MDA-MB-231 72.9 µM | MDA-MB-435 > 100 µM | Malme-3M 69.7 µM | NCI-H460 50.7 µM | NCI-H522 51.6 µM | NCI/ADR-RES > 100 µM | PC-3 98.2 µM | SF-268 87.1 µM | SN12C > 100 µM | SNB-19 56.2 µM | UO-31 57.9 µM

O=C(O)C1C2CCC(O2)C1C(=O)Nc1cccc2cccnc12 (centres undefined)
inactive: 786-0 > 100 µM | A549 > 100 µM | HCC 2998 31.1 µM | HCT-116 > 100 µM | HOP-62 > 100 µM | Hs-578T 93.5 µM | IGROV-1 > 100 µM | MDA-MB-231 > 100 µM | MDA-MB-435 > 100 µM | Malme-3M > 100 µM | NCI-H460 55.5 µM | NCI-H522 88.5 µM | NCI/ADR-RES > 100 µM | OVCAR-4 > 100 µM | PC-3 > 100 µM | SN12C > 100 µM | SNB-19 > 100 µM | UO-31 > 100 µM

C/C(=N\Nc1cc(CN2CCCC2)c(-c2ccc(Cl)cc2)nn1)C(=O)O
inactive: 786-0 > 100 µM | A549 > 100 µM | CCRF-CEM > 100 µM | HCT-116 > 100 µM | HOP-62 > 100 µM | Hs-578T > 100 µM | IGROV-1 > 100 µM | MDA-MB-231 > 100 µM | MDA-MB-435 > 100 µM | Malme-3M > 100 µM | NCI-H460 > 100 µM | NCI-H522 > 100 µM | NCI/ADR-RES > 100 µM | OVCAR-4 > 100 µM | PC-3 > 100 µM | SF-268 > 100 µM | SN12C > 100 µM | SNB-19 > 100 µM | UO-31 > 100 µM

COc1ccccc1OC(=O)/C=C/c1ccccc1
inactive: 786-0 > 100 µM | A549 > 100 µM | HCC 2998 > 100 µM | HCT-116 > 100 µM | HOP-62 52.1 µM | Hs-578T > 100 µM | IGROV-1 > 100 µM | MDA-MB-231 > 100 µM | MDA-MB-435 > 100 µM | Malme-3M > 100 µM | NCI-H460 33 µM | NCI-H522 > 100 µM | NCI/ADR-RES > 100 µM | OVCAR-4 > 100 µM | PC-3 > 100 µM | SF-268 52.1 µM | SN12C > 100 µM | SNB-19 > 100 µM | UO-31 > 100 µM

CCCCCCCCCCCCCCCCCCNc1ccn(C2OC(CO)C(OP(=O)(O)OCC(O)COP(=O)(O)OCC3OC(n4cc(F)c(NCCCCCCCCCCCCCCCCCC)nc4=O)CC3O)C2O)c(=O)n1 (centres undefined)
inactive: 786-0 > 50 µM | A549 > 50 µM | HCC 2998 > 50 µM | HCT-116 > 50 µM | HOP-62 > 50 µM | Hs-578T > 50 µM | IGROV-1 > 50 µM | MDA-MB-231 > 50 µM | MDA-MB-435 > 50 µM | Malme-3M > 50 µM | NCI-H460 > 50 µM | NCI-H522 > 50 µM | NCI/ADR-RES > 50 µM | OVCAR-4 > 50 µM | PC-3 > 50 µM | SF-268 > 50 µM | SN12C > 50 µM | SNB-19 > 50 µM | UO-31 > 50 µM

O=C(Oc1cncc(Cl)c1)c1cc2ccccc2sc1=O
inactive: 786-0 63.5 µM | A549 > 100 µM | HCC 2998 32.7 µM | HCT-116 78.3 µM | HOP-62 54.3 µM | Hs-578T 38.9 µM | IGROV-1 49.5 µM | MDA-MB-231 61.5 µM | MDA-MB-435 29.5 µM | Malme-3M 34.2 µM | NCI-H460 82.8 µM | NCI-H522 19.5 µM | NCI/ADR-RES 78.3 µM | OVCAR-4 73.6 µM | PC-3 33 µM | SF-268 49.5 µM | SN12C 60.3 µM | SNB-19 92.5 µM | UO-31 > 100 µM

Reference: ChEMBL document CHEMBL1201862, “PubChem BioAssay data set” (2004)
